# Source: patent publication US20070259966A1, “Coadministration of Radiation, Efaproxiral Sodium, and Supplemental Oxygen for the Treatment of Cancer” (ALLOS THERAPEUTICS, INC., priority 2004, published 2007)
# Tests used:
# hemoglobin = biological target: T1, hemoglobin (Homo sapiens, UniProt P68871+P69905); test: Predicted p50 shift from RBC concentration; type: in vivo; details: at RBC concentration >483 μg/ml
# T1 construct: endogenous in cells; host or cells: red blood cells of treated patients (in vivo)
# Experimental: Sometimes, efaproxiral sodium is represented by the name 2-[4-[2-[(3,5-dimethylphenyl)amino]-2-oxoethyl]phenoxy]-2-methylpropanoic acid. In general efaproxiral sodium is administered as a physiologically acceptable salt, such as the monosodium salt; that is, X+ is Na+. Efaproxiral sodium induces allosteric modification of hemoglobin, such that its binding affinity for oxygen is decreased, resulting in increased oxygen distribution to tissues by erythrocytes.
# (§1) Plasma and red blood cell (RBC) drug concentration were assayed on 2 days during the course of efaproxiral sodium administration: WBRT day 1 (end-infusion) and on 1 single day between WBRT days 6 and 10 (pre-infusion and end-infusion assays). Regression analysis was used to explore the relationship between trough and peak concentrations and continuous clinical covariates (eg, age, serum albumin, hematocrit, serum creatinine, etc). […] A dose of efaproxiral sodium was considered predicatably therapeutic if it achieved a sufficient RBC concentration (>483 μg/ml), and corresponded to a predicted p50 shift of 10 mmHg.
# [1] = Plasma and red blood cell (RBC) drug concentration; type: in vivo, human
# Experimental: as §1
# [2] = system: patients with brain metastases; test: Quality of life: Spitzer Questionnaire (SQ); type: in vivo, human
# Experimental: (§2) C. Quality of Life. Quality of life was determined by means of the Spitzer Questionnaire (SQ) and Karnofsky Performance Status (KPS) assessment. The tests were performed at baseline, at WBRT day 10, and at all routine follow-up visits. A sustained drop in the KPS score to less than 60 was defined as a significant drop. The 5 questions comprising the Spitzer Questionnaire were weighted evenly. For each evaluation with at least 3 out of 5 questions answered, an average score was computed for each patient. Questionnaires with fewer than 3 questions answered were treated as missing data. The protocol specified a sustained drop in the Spitzer Questionnaire score of 2 points constituted a significant drop.
# [3] = system: patients with brain metastases; test: Quality of life: Karnofsky Performance Status (KPS); type: in vivo, human
# Experimental: as §2
# [4] = system: patients with brain metastases; test: Safety / treatment-emergent adverse events in the controlled study; type: in vivo, human
# Experimental: Depending upon an individual patient's resaturation time (time required to recover to a stable ≧90% SpO2 on room air) following efaproxiral sodium plus WBRT, supplemental oxygen use may be required for as little as 30 minutes to more than 4 hours. […] During this period of decreased oxygen saturation, patients require continuous SpO2 monitoring. If the desired SpO2 of ≧90% while breathing room air is not achieved, supplemental oxygen is to be continued and increased to a flow of 6-8 L/min, if necessary, until the SpO2 while breathing room air is stabilized at ≧90%.
# Patients with brain metastases were administered efaproxiral sodium in a total dose of 0-100 mg/kg per day based on the dosing guidelines detailed above. In general, efaproxiral sodium is administered by intravenous infusion through a central venous access device over 30 minutes at a dose of 75 or 100 mg/kg daily with concurrent supplemental oxygen. Oxygen must be administered at 4 L/min via nasal cannula or facemask beginning 5 minutes prior to initiation of infusion, during infusion and WBRT, and for at least 15 minutes after completion of daily WBRT. Efaproxiral sodium is administered every day of a fractionated course of WBRT. Except when contraindicated, WBRT must be administered within 30 minutes of the end of the efaproxiral sodium infusion.
# The patients were given the drug in one dose. Efaproxiral sodium was administered via central venous access with flow rate controlled by volumetric pump over a 30-45 minute interval with end-infusion no longer than 30 minutes prior to each radiation dose of a 10-day course of WBRT. Efaproxiral sodium was formulated as a sterile solution for injection and was supplied in single-use glass bottles containing 10 g efaproxiral sodium in 500 mL of 0.225% NaCl at a concentration of 20 mg/mL. Efaproxiral sodium was administered during the 10-day course of WBRT, for a maximum of 10 doses. A control group received radiation and supplemental oxygen only.
# The majority of treatment-emergent adverse events were Grade 1 or 2 in severity, resolved spontaneously or within the duration of the study, and responded well to concomitant treatment with antiemetics for nausea/vomiting, nonsteroidal anti-inflammatory drugs for headache, supplemental oxygen for hypoxemia. […] Muscle weakness and dyspnea (reported in 3% of patients) were the most commonly reported Grade 3 adverse events in Control patients and both events were reported as a Grade 4 event in 1 patient each. The most commonly reported Grade 4 adverse event in both treatment and control groups was disease progression (reported in 6% of both groups).
# T1 sequence (P69905 2-142 limits assumed): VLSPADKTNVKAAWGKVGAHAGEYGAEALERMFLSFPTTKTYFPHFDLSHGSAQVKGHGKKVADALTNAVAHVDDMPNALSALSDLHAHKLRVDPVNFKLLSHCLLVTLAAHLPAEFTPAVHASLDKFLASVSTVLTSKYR
# T1 sequence (P68871 2-147 limits assumed): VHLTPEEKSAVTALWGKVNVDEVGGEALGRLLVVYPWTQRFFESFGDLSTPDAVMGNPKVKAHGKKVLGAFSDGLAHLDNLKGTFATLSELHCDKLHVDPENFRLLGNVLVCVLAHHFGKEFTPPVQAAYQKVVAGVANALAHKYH
structure (smiles),measurement,setting,value
"Cc1cc(C)cc(NC(=O)Cc2ccc(OC(C)(C)C(=O)O)cc2)c1 [efaproxiral sodium, 2-[4-(((3,5-dimethylanilino)carbonyl)methyl)phenoxy]-2-methylpropionic acid]",predicted p50 shift,hemoglobin,10 mmHg
same,drug accumulation in RBCs,[1]; WBRT week 2 preinfusion concentrations,No clinically relevant drug accumulation
same,"concentrations in RBCs, higher body weight versus low weight patients",[1]; at a given dose,higher
same,"concentrations in RBCs, breast primary versus NSCLC and other primary patients",[1]; in vivo,higher
same,change of concentrations in RBCs with dose,[1]; patients dosed at 75 or 100 mg/kg,proportional increase
same,"patients with stable or improving SQ scores, (%)",[2]; 1 month,(42) %
same,"patients with stable or improving SQ scores, (%)",[2]; 3 months,(23) %
same,"patients with stable or improving SQ scores, (%)",[2]; 6 months,(16) %
same,"patients with stable or improving SQ scores, (%)",[2]; 12 months,(9) %
same,percentage of patients with stable or improving SQ scores over time versus Control,"[2]; χ2=3.4675, p=0.0626",trend toward a higher percentage
same,"patients with stable or improving KPS scores, (%)",[3]; 1 month,(44) %
same,"patients with stable or improving KPS scores, (%)",[3]; 3 months,(24) %
same,"patients with stable or improving KPS scores, (%)",[3]; 6 months,(18) %
same,"patients with stable or improving KPS scores, (%)",[3]; 12 months,(7) %
same,distribution of KPS score categories between treatment groups,"[3]; breast primary, 6 months and 1 year (p=0.0046 and p=0.0070)",statistically significant difference
same,percentage of patients with stable or improving KPS scores over time versus Control,"[3]; χ2=9.0096, p=0.0027",highly statistically significant
same,Grade 4 hypoxemia,[4]; in vivo,no Grade 4 hypoxemia was reported
same,severity of the majority of treatment-emergent adverse events,[4]; in vivo,Grade 1 or 2
same,duration of supplemental oxygen required after completion of WBRT,"[4]; majority of doses, patients with brain metastases from breast cancer",one hour or less
same,"Grade 3 hypoxemia, patients reporting",[4]; most commonly reported Grade 3 adverse event,11%
same,"Grade 4 disease progression, patients reporting",[4]; most commonly reported Grade 4 adverse event,6%
